# Entries after “also recorded” stand apart in the source; their conditions may differ.
# Experiments:
# [1] = system: MDR1; experiment: In vitro MDCK-MDR1 permeability; format: in vitro ADME; details: dog, MDCK-MDR1, pH 7.4, MDR1-MDCKII monolayer, 2 μM, 150 minutes
# Description: (§1) MDR1-MDCKII cells (from the Netherlands Cancer Institute) were inoculated onto a 96-plate (from Corning) with a cell density of 2.5×10^5 cells/mL, and cultured for 4-7 days to form a co-polymeric cell monolayer. A Hank's equilibrium salt buffer (pH=7.40±0.05) containing 10 mM of 4-hydroxyethyl piperazine ethanesulfonic acid was used as a transport buffer. The bidirectional transport of the test compound at a concentration of 2 μM was tested, and the concentration of DMSO in the incubation system was controlled below 1%. After sample loading, the cell plate was placed at 37±1° C. for inoculation with 5% CO2 under a saturated humidity condition for 150 minutes. All samples were subjected to quantitative analysis using the LC-MS/MS method.
# (§2) The apparent permeability coefficient (Papp, cm/s), the efflux ratio, and the recovery rate were calculated using the following formula.
# (§3) The apparent permeability coefficient (Papp, cm/s) was calculated using the following formula: […]
# (§4) DC/dt was the cumulative concentration (μM/s) of the compound at the receiving end per unit time; Vr was the volume of the solution at the receiving end (the solution volumes at the top and base ends were 0.075 mL and 0.250 mL, respectively); A was the relative surface area of the cell monolayer (0.0804 cm^2); and C0 was the initial concentration (nM) of a test sample at the administration end or the peak area ratio of a control sample.
# (§5) The efflux ratio was calculated using the following formula: […]
# (§6) The recovery rate was calculated using the following formula: […]
# (§7) C0 was the initial concentration (nM) of the test sample at the administration end or the peak area ratio of the control sample; Vd was the volume of the administration end (0.075 mL on the top side and 0.250 mL on the base side); Cd and Cr were the final concentrations (nM) of the test sample at the administration end and the receiving end, or the peak area ratios of the control sample , respectively.
# [2] = system: MDR1-MDCKII cells; experiment: In vitro MDCK-MDR1 permeability; format: in vitro ADME; details: MDR1-MDCKII permeability and efflux rating
# Description: as §1, §2, §3, §4, §5, §6, §7
smiles,measurement,setting,value
"C[C@@H]1CN(C(=O)[C@@H]2CN(C3CCOCC3)C[C@H]2c2ccc(F)cc2F)C[C@H](C)N1c1ccc(F)cc1 (single isomer, unassigned) [Compound 7]","efflux ratio at 150 min, 2 μM",[1],0.98
same,"Papp A→B at 150 min, 2 μM",[1]; pH 7.40,13.5 ×10⁻⁶ cm/s
same,"Papp B→A at 150 min, 2 μM",[1]; pH 7.40,13.2 ×10⁻⁶ cm/s
same,Rating,[2],"High permeability,; also recorded: low efflux"
